The target of experiment [1] is T1, Human CD73 (amino acid residues 27-549) (Homo sapiens, UniProt P21589).
T1 construct: Human CD73 (amino acid residues 27-549); His tag (N); made in house; host or cells: E. coli
T1 sequence (P21589 27-549): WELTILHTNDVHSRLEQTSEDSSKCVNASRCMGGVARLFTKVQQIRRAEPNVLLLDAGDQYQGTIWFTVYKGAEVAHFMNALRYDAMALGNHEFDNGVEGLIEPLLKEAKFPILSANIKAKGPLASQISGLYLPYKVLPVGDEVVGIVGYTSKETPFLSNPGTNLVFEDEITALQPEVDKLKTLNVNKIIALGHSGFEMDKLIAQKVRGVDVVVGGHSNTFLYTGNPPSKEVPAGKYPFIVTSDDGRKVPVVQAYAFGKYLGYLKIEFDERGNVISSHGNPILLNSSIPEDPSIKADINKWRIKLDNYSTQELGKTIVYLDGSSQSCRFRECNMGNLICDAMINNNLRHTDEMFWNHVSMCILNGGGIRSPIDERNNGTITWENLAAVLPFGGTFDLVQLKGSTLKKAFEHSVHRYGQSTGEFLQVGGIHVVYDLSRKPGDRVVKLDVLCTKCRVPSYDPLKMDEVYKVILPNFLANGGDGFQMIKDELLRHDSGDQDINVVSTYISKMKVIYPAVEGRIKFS
Description: CD73 enzymatic assay (luciferase-based indirect assay, CellTiter-Glo). It counts as biochemical. The conditions noted are these: 0.4 nM CD73, 150 μM AMP, 1 hour at room temperature. On the procedure:
CD73 enzymatic activity was measured in a luciferase-based indirect assay using CellTiter-Glo® system from Promega. The luciferase reaction in the presence of ATP is inhibited by AMP, a primary substrate of CD73. Addition of CD73 enzyme to the reaction converts AMP to adenosine, and release the inhibition, producing a luminescent signal. Inhibition of CD73 leads to the decrease of this luminescent signal.
Human CD73 (amino acid residues 27-549) with N-Terminal His tag was purified in E. coli. All the assay components were prepared in 50 mM HEPEs buffer (pH 7.4) with 0.01% Tween® 20. The CD73 enzymatic assay was performed using 0.4 nM CD73 and 150 μM AMP. 9.5 μL of CD73 protein and 9.5 μL of AMP were added to the wells of a 384 well plate containing 1 μL of various concentrations of test compound or DMSO vehicle and incubated for 1 hour at room temperature. 16 wells containing CD73, AMP and 5% DMSO served as high control. 16 wells containing AMP and 5% DMSO served as low control. Enzymatic reaction was stopped and AMP level was measured indirectly by adding 5 μL of CellTiter-Glo® 2.0 reagent and 5 μL of ATP with a final concentration of 1 μM. Following incubation of the plate at room temperature for 30 minutes, luminescent signal was read on a Tecan plate reader. The percentage inhibition at individual concentrations relative to high and low controls was calculated. The data were analyzed by using nonlinear regression to generate IC50 values.

Experiment [2] addresses T2, human CD73 (Homo sapiens, UniProt P21589).
T2 construct: expressed in transfected cells
T2 sequence (P21589 27-549): T1 sequence (P21589 27-549)
Description: Inhibitor activity against CD73 in cell based assay (CD73 expressing CHO-K1 cells). The conditions noted are these: CHO-K1 cells expressing human CD73, 150 μM AMP, 4 hours of incubation; read-out: CHO-K1 CELL VARIANT: CD73 IC50. On the procedure: Determine Inhibitor Activity Against CD73 in Cell Based Assay
CD73 expressing CHO-K1 cell clones were generated upon stable transfection of a plasmid expressing human CD73 under the control of CMV promoter. Cells were selected in Ham's F-12K (Kaighn's) media supplemented with 10% fetal bovine serum and 1 mg/ml G418 at 37° C. in a humidified incubator supplied with 5% CO2. The assays were performed as follows. Cells were seeded in a 96 well plate in 50 μL of culture media at a density of 1×10^4 per well. Compound at a maximal concentration of 5 mM was serially diluted 1:3 in DMSO for a total of 8 point titration. A 2 μL aliquot of each dilution point was added to 248 μL culture media and 25 µL was added to each well, providing 10 μM compound at the maximum concentration point. AMP was diluted in culture media and 25 μL was added to each well with a final concentration of 150 μM. 4 wells containing 0.2% DMSO treated cells and AMP served as high controls and 4 wells containing media only with 0.2% DMSO and AMP served as low controls. After 4 hours of incubation, 20 μL of the supernatant was transferred to a 384 well plate. AMP level in supernatant was measured indirectly by adding 5 μL of CellTiter-Glo® 2.0 reagent and 5 μL of ATP with a final concentration of 1 μM. Following incubation of plate at room temperature for 30 minutes, luminescent signal was read on a Tecan plate reader. The percentage inhibition at individual concentrations relative to high and low controls was calculated. The data were analyzed by using nonlinear regression to generate IC50 values.

On to `O=C(N[C@@H]1CCN(c2cn[nH]c(=O)c2Cl)C1)OC1CCCCC1` [P-0015, cyclohexyl (R)-(1-(5-chloro-6-oxo-1,6-dihydropyridazin-4-yl)pyrrolidin-3-yl)carbamate], for which the IC50 in experiment [1] lay within 0.001 to 10 µM; in experiment [2], 10 to 100 µM.

Regarding `O=C(NC1CCCC1)O[C@@H]1CCN(c2cn[nH]c(=O)c2Cl)C1` [P-0017, (R)-1-(5-chloro-6-oxo-1,6-dihydropyridazin-4-yl)pyrrolidin-3-yl cyclopentylcarbamate], the concentration for half-maximal inhibition (IC50) in experiment [1] and in experiment [2] was 0.001 to 10 µM throughout.

`O=C(NC1CCCCC1)O[C@@H]1CCN(c2cn[nH]c(=O)c2Cl)C1` [P-0018, (R)-1-(5-chloro-6-oxo-1,6-dihydropyridazin-4-yl)pyrrolidin-3-yl cyclohexylcarbamate]: the IC50 in experiment [1] and in experiment [2] was 0.001 to 10 µM throughout.

Regarding `O=C(NC1CCCC1)O[C@H]1CCN(c2cn[nH]c(=O)c2Cl)C1` [P-0020, (S)-1-(5-chloro-6-oxo-1,6-dihydropyridazin-4-yl)pyrrolidin-3-yl cyclopentylcarbamate], the concentration for half-maximal inhibition (IC50) in experiment [1] was in the range of 0.001 to 10 µM; in experiment [2], 10 to 100 µM.

As to `O=C(NC1CCCCC1)O[C@H]1CCN(c2cn[nH]c(=O)c2Cl)C1` [P-0021, (S)-1-(5-chloro-6-oxo-1,6-dihydropyridazin-4-yl)pyrrolidin-3-yl cyclohexylcarbamate], the figures for the IC50 in experiment [1] and in experiment [2] were 0.001 to 10 µM and 10 to 100 µM, respectively.

Turning to `O=C(NC1CCC(F)(F)CC1)N[C@@H]1CCN(c2cn[nH]c(=O)c2Cl)C1` [P-0022, (R)-1-(1-(5-chloro-6-oxo-1,6-dihydropyridazin-4-yl)pyrrolidin-3-yl)-3-(4,4-difluorocyclohexyl)urea], the IC50 was in the range of 0.001 to 10 µM in experiment [1] and 10 to 100 µM in experiment [2].

As for `O=C(N[C@@H]1CCN(c2cn[nH]c(=O)c2Cl)C1)OC1CCCC1` [P-0030, cyclopentyl (R)-(1-(5-chloro-6-oxo-1,6-dihydropyridazin-4-yl)pyrrolidin-3-yl)carbamate], the IC50 in experiment [1] lay within 0.001 to 10 µM; in experiment [2], 10 to 100 µM.

With `O=C(NC1CCCCC1)N[C@@H]1CCN(c2cn[nH]c(=O)c2Cl)C1` [P-0039, (R)-1-(1-(5-chloro-6-oxo-1,6-dihydropyridazin-4-yl)pyrrolidin-3-yl)-3-cyclohexylurea], the IC50 in experiment [1] and in experiment [2] was 0.001 to 10 µM each time.

Consider `O=C(NC1CCCC1)N[C@@H]1CCN(c2cn[nH]c(=O)c2Cl)C1` [P-0046, (R)-1-(1-(5-chloro-6-oxo-1,6-dihydropyridazin-4-yl)pyrrolidin-3-yl)-3-cyclopentylurea], for which the IC50 in experiment [1] and in experiment [2] was 0.001 to 10 µM in each case.

`O=C(NC1CCN(C(=O)C(F)(F)F)CC1)N[C@@H]1CCN(c2cn[nH]c(=O)c2Cl)C1` [P-0047, (R)-1-(1-(5-chloro-6-oxo-1,6-dihydropyridazin-4-yl)pyrrolidin-3-yl)-3-(1-(2,2,2-trifluoroacetyl)piperidin-4-yl)urea]: the concentration for half-maximal inhibition (IC50) in experiment [1] was 0.001 to 10 µM; in experiment [2], 10 to 100 µM.

The compound `CC(C)(C)OC(=O)NC1(C(=O)O)CCN(c2cn[nH]c(=O)c2Cl)C1` (stereo not shown) [P-0070, 3-((tert-butoxycarbonyl)amino)-1-(5-chloro-6-oxo-1,6-dihydropyridazin-4-yl)pyrrolidine-3-carboxylic acid] returned an IC50 in experiment [1] of 100 to 1000 µM.

Take `CC(=O)N1CCC(NC(=O)N[C@@H]2CCN(c3cn[nH]c(=O)c3Cl)C2)CC1` [P-0071, (R)-1-(1-acetylpiperidin-4-yl)-3-(1-(5-chloro-6-oxo-1,6-dihydropyridazin-4-yl)pyrrolidin-3-yl)urea]: in experiment [1], the IC50 was 0.001 to 10 µM.

In turn, `CCS(=O)(=O)N1CCC(NC(=O)N[C@@H]2CCN(c3cn[nH]c(=O)c3Cl)C2)CC1` [P-0072, (R)-1-(1-(5-chloro-6-oxo-1,6-dihydropyridazin-4-yl)pyrrolidin-3-yl)-3-(1-(ethylsulfonyl)piperidin-4-yl)urea] had an IC50 in experiment [1] of 0.001 to 10 µM.

As for `N#CC1(NC(=O)NC2CCCC2)CCN(c2cn[nH]c(=O)c2Cl)C1` (stereo not shown) [P-0073, 1-(1-(5-chloro-6-oxo-1,6-dihydropyridazin-4-yl)-3-cyanopyrrolidin-3-yl)-3-cyclopentylurea], the IC50 in experiment [1] is 10 to 100 µM.

Consider `NC(=O)C1(NC(=O)OC2CCCCC2)CCN(c2cn[nH]c(=O)c2Cl)C1` (stereo not shown) [P-0075, cyclohexyl (3-carbamoyl-1-(5-chloro-6-oxo-1,6-dihydropyridazin-4-yl)pyrrolidin-3-yl)carbamate], for which, in experiment [1], the half-inhibitory concentration (IC50) fell in the range of 10 to 100 µM.

Take `CN(C(=O)NC1CCN(c2cn[nH]c(=O)c2Cl)C1)C1CCCCC1` (stereo not shown) [P-0078, 3-(1-(5-chloro-6-oxo-1,6-dihydropyridazin-4-yl)pyrrolidin-3-yl)-1-cyclohexyl-1-methylurea]: in experiment [1], the IC50 was in the range of 10 to 100 µM.

Take `CN(C(=O)NC1CCN(c2cn[nH]c(=O)c2Cl)C1)C1CCCC1` (stereo not shown) [P-0079, 3-(1-(5-chloro-6-oxo-1,6-dihydropyridazin-4-yl)pyrrolidin-3-yl)-1-cyclopentyl-1-methylurea]: in experiment [1], the IC50 lay in the range of 0.001 to 10 µM.

Turning to `Cc1n[nH]c(=O)c(Cl)c1N1CC[C@@H](NC(=O)NC2CCCCC2)C1` [P-0080, (R)-1-(1-(5-chloro-3-methyl-6-oxo-1,6-dihydropyridazin-4-yl)pyrrolidin-3-yl)-3-cyclohexylurea], the IC50 in experiment [1] was 10 to 100 µM.

In the case of `Cc1c(N2CC[C@@H](NC(=O)OC3CCCCC3)C2)cn[nH]c1=O` [P-0081, cyclohexyl (R)-(1-(5-methyl-6-oxo-1,6-dihydropyridazin-4-yl)pyrrolidin-3-yl)carbamate], the IC50 in experiment [1] fell in the range of 0.001 to 10 µM.

For the compound `Cc1n[nH]c(=O)c(Cl)c1N1CC[C@@H](NC(=O)OC2CCCC2)C1` [P-0082, cyclopentyl (R)-(1-(5-chloro-3-methyl-6-oxo-1,6-dihydropyridazin-4-yl)pyrrolidin-3-yl)carbamate], the IC50 in experiment [1] is 10 to 100 µM.

The compound `O=C(NCC1CC1)N[C@@H]1CCN(c2cn[nH]c(=O)c2Cl)C1` [P-0083, (R)-1-(1-(5-chloro-6-oxo-1,6-dihydropyridazin-4-yl)pyrrolidin-3-yl)-3-(cyclopropylmethyl)urea] displayed an IC50 in experiment [1] of 10 to 100 µM.

As for `O=C(NC1CC1c1ccccc1)N[C@@H]1CCN(c2cn[nH]c(=O)c2Cl)C1` (stereo partly drawn) [P-0084, 1-((R)-1-(5-chloro-6-oxo-1,6-dihydropyridazin-4-yl)pyrrolidin-3-yl)-3-(2-phenylcyclopropyl)urea], the concentration for half-maximal inhibition (IC50) in experiment [1] is 0.001 to 10 µM.

In experiment [1], `O=C(NC1C2CC3CC(C2)CC1C3)N[C@@H]1CCN(c2cn[nH]c(=O)c2Cl)C1` (stereo partly drawn) [P-0087, (R)-1-(adamantan-2-yl)-3-(1-(5-chloro-6-oxo-1,6-dihydropyridazin-4-yl)pyrrolidin-3-yl)urea] returned an IC50 of 0.001 to 10 µM.

For the compound `COC(=O)C12CCC(NC(=O)O[C@@H]3CCN(c4cn[nH]c(=O)c4Cl)C3)(CC1)CC2` [P-0120, methyl (R)-4-((((1-(5-chloro-6-oxo-1,6-dihydropyridazin-4-yl)pyrrolidin-3-yl)oxy)carbonyl)amino)bicyclo [2.2.2]octane-1-carboxylate], in experiment [1], the 50% inhibitory concentration (IC50) lay within 0.001 to 10 µM.

In general, IC50 refers to the concentration at which inhibition is half-maximal.

The values above are taken from patent US12509444B2, “Compounds and methods for CD73 modulation and indications therefor” (Plexxikon Inc., priority 2019, dated 2025).
